Measured values from patent US20060128724A1, “Pyrazole-substituted aminoheteroaryl compounds as protein kinase inhibitors” (AGOURON PHARMACEUTICALS, INC., priority 2004, published 2006).
Like-named read-outs stand apart in the source and are kept apart here.

Target: T1, c-MET (HGFR) (Homo sapiens, UniProt P08581)
T1 construct: purchased Upstate 14-526
Experiment: HGFR Continuous-Coupled Spectrophotometric Assay
Assay type: biochemical
Settings: Met-2 substrate peptide, 50 nM HGFR, 37° C.
Source text: The following in vitro assay may be used to determine the level of activity and effect of the different compounds of the present invention on one or more of the PKs. Similar assays can be designed along the same lines for any PK using techniques well known in the art.
The general procedure is as follows: compounds and kinase assay reagents are introduced into test wells. The assay is initiated by addition of the kinase enzyme. Enzyme inhibitors reduce the measured activity of the enzyme.
In the continuous-coupled spectrophotometric assay the time-dependent production of ADP by the kinase is determined by analysis of the rate of consumption of NADH by measurement of the decrease in absorbance at 340 nm. As the PK produces ADP it is re-converted to ATP by reaction with phosphoenol pyruvate and pyruvate kinase. Pyruvate is also produced in this reaction. Pyruvate is subsequently converted to lactate by reaction with lactate dehydrogenase, which simultaneously converts NADH to NAD.
HGFR Continuous-Coupled Spectrophotometric Assay
This assay analyzes the tyrosine kinase activity of HGFR on the Met-2 substrate peptide, a peptide derived from the activation loop of the HGFR.
• 1. […] Dissolve up in 200 mM HEPES, pH 7.5 at 10 mM stock. • 3. 1 M PEP (phospho-enol-pyruvate) in 200 mM HEPES, pH 7.5 • 4. 100 mM NADH (B-Nicotinamide Adenine Dinucleotide, Reduced Form) in 200 mM HEPES, pH 7.5 • 5. 4 M MgCl2 (Magnesium Chloride) in ddH2O • 6. 1 M DTT (Dithiothreitol) in 200 mM HEPES, pH 7.5 • 7. 15 Units/mL LDH (Lactic Dehydrogenase) • 8. 15 Units/mL PK (Pyruvate Kinase) • 9. 5M NaCl dissolved in ddH2O • 10. Tween-20 (Protein Grade) 10% Solution • 11. 1 M HEPES buffer: (N-[2-Hydroxethyl]piperazine-N-[2-ethanesulfonic acid]) Sodium Salt. Dissolve in ddH2O, adjust pH to 7.5, bring volume to 1 L. Filter at 0.1 μm. • 12. […] 100% DMSO (SIGMA) • 14. […] Beckman DU-650 w/micro cell holders • 18. Beckman 4-position micro cell cuvette Procedure:
Prep Dilution Buffer (DB) for Enzyme (For 30 mL prep) • 1. DB final concentration is 2 mM DTT, 25 mM NaCl2, 5 mM MgCl2, 0.01% Tween-20, and 50 mM HEPES buffer, pH 7.5. • 2. Make up 50 mM HEPES by adding 1.5 mL 1 M HEPES into 28.1 mL of ddH2O. Add rest of the reagents. Into 50 mL conical vial, add 60 μL of 1M DTT, 150 μL 5M NaCl2, 150 μL 1M MgCl2, and 30 μL of 10% Tween-20 to give total volume of 30 mL. • 3. […] Aliquot out DB at 1 mL/tube and label tubes as “DB HGFR” • 5. Note: This can be prepared and stored ahead of time. • 6. Freeze un-used aliquots in microcentrifuge tubes at −20° C. freezer. […] For compound dilution plate, add 4 μL of 10 mM stock into column 1 of plate, and bring volume to 100 μL with 100% DMSO. • 2. Set up the Precision 2000 dilution method. A final concentration of 200 μM compound in 50% DMSO, 100 mM HEPES (1:2 serial dilution). Prep Coupled Enzymatic Buffer:
1. Final concentration in assay:
• 2. For a 10 mL reaction buffer add 10 μL of 1M PEP, 33 μL of 100 mM NADH, 50 μL of 4M MgCl2, 20 μL of 1M DTT, 6 μL of 500 mM ATP, and 500 μL of 10 mM Met-2 peptide into 100 mM HEPES buffer pH 7.5 and vortex/mix. • 3. Add coupling enzymes, LDH and PK, into reaction mix. Mix by gentle inversion. Running Samples
1. Spectrophotometer settings:
• 2. Add 85 μL of CE reaction mix into each well of assay plate. • 3. Add 5 μL of diluted compound into a well of the assay plate. • 4. Add 5 μL of 50% DMSO for negative control into last column of assay plate. • 5. Mix with multi-channel pipettor or orbital shaker. • 6. Pre-incubate for 10 minutes at 37° C. • 7. Add 10 μL of 500 nM HGFR to each well of assay plate; the final HGFR concentration is 50 nM in a total final volume of 100 μL. • 8. Measure activity for 10 minutes at λ=340 nm and 37° C.

T1 sequence (P08581 974-1390 limits assumed): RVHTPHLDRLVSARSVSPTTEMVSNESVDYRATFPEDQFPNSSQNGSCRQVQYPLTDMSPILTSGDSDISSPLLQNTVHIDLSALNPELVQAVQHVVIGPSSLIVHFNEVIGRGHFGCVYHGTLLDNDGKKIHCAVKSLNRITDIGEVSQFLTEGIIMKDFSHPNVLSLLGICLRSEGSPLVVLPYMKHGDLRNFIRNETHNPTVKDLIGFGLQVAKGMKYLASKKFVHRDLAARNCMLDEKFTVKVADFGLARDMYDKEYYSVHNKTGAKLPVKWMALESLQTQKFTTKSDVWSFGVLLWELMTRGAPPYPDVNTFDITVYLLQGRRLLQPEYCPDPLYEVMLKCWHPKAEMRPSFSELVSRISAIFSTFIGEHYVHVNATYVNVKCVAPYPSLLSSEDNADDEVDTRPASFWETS

Ki (read-out: c-Met Ki) [nM] | Ki (read-out: Met Ki) [nM] | Compound
20 |  | CC(Oc1cc(-c2cnn(C3CCN(CC#N)CC3)c2)cnc1N)c1c(Cl)ccc(F)c1Cl (stereo not drawn) [Example 42, [4-(4-{6-Amino-5-[1-(2,6-dichloro-3-fluoro-phenyl)-ethoxy]-pyridin-3-yl}-pyrazol-1-yl)-piperidin-1-yl]-acetonitrile]
60 |  | CC(Oc1cc(-c2cnn(C(C)(C)C(=O)NCCN3CCCC3)c2)cnc1N)c1c(Cl)ccc(F)c1Cl (stereo not drawn) [Example 21, 2-(4-{6-Amino-5-[1-(2,6-dichloro-3-fluoro-phenyl)-ethoxy]-pyridin-3-yl}-pyrazol-1-yl)-N-(2-pyrrolidin-1-yl-ethyl)-isobutyramide]
 | 22 | CCOc1ccc(Cl)c(C(C)Oc2cc(-c3cnn(C4CCNCC4)c3)cnc2N)c1Cl (stereo not drawn) [Example 139]
10 |  | CC(Oc1cc(-c2cnn(C3CCN(S(C)(=O)=O)CC3)c2)cnc1N)c1c(Cl)ccc(F)c1Cl (stereo not drawn) [Example 50, 3-[1-(2,6-Dichloro-3-fluoro-phenyl)-ethoxy]-5-[1-(1-methanesulfonyl-piperidin-4-yl)-1H-pyrazol-4-yl]-pyridin-2-ylamine]
10 |  | CC(=O)N1CCC(n2cc(-c3cnc(N)c(OC(C)c4c(Cl)ccc(F)c4Cl)c3)cn2)CC1 (stereo not drawn) [Example 41, 1-[4-(4-{6-Amino-5-[1-(2,6-dichloro-3-fluoro-phenyl)-ethoxy]-pyridin-3-yl}-pyrazol 1-yl)-piperidin-1-yl]-ethanone]
40 |  | CC(Oc1cc(-c2cnn(Cc3nn[nH]n3)c2)cnc1N)c1c(Cl)ccc(F)c1Cl (stereo not drawn) [Example 100, 3-[1-(2,6-dichloro-3-fluorophenyl)ethoxy]-5-[1-(2H-tetrazol-5-ylmethyl)-1H-pyrazol-4-yl]pyridin-2-amine]
10 |  | CC(Oc1cc(-c2cnn(C3CCN(C(=O)OCCO)CC3)c2)cnc1N)c1c(Cl)ccc(F)c1Cl (stereo not drawn) [Example 95, 2-hydroxyethyl 4-(4-{6-amino-5-[1-(2,6-dichloro-3-fluorophenyl)ethoxy]pyridin-3-yl}-1H-pyrazol-1-yl)piperidine-1-carboxylate]
44 |  | CC(Oc1cc(-c2cnn(CC3CN(S(C)(=O)=O)C3)c2)cnc1N)c1c(Cl)ccc(F)c1Cl (stereo not drawn) [Example 107, 3-[1-(2,6-dichloro-3-fluorophenyl)ethoxy]-5-(1-{[1-(methylsulfonyl)azetidin-3-yl]methyl}-1H-pyrazol-4-yl)pyridin-2-amine]
 | 849 | CC(Oc1cc(-c2cnn(C3CCNCC3)c2)cnc1N)c1cc(F)ccc1C#N (stereo not drawn) [Example 135, 2-{1-[2-Amino-5-(1-piperidin-4-yl-1H-pyrazol-4-yl)-pyridin-3-yloxy]ethyl}-4-fluoro-benzonitrile]
 | 105 | CC(Oc1cc(-c2cnn(CCN3CCCC3=O)c2)cnc1N)c1c(Cl)ccc(F)c1Cl (stereo not drawn) [Example 133, 1-[2-(4-{6-Amino-5-[1-(2,6-dichloro-3-fluoro-phenyl)-ethoxy]-pyridin-3-yl}pyrazol-1-yl)-ethyl]-pyrrolidin-2-one]
37 |  | CC(Oc1cc(-c2cnn(CC3CN(CC#N)C3)c2)cnc1N)c1c(Cl)ccc(F)c1Cl (stereo not drawn) [Example 111, {3-[(4-{6-amino-5-[1-(2,6-dichloro-3-fluorophenyl)ethoxy]pyridin-3-yl}-1H-pyrazol-1-yl)methyl]azetidin-1-yl}acetonitrile]
21 |  | CC(Oc1cc(-c2cnn(C3CN(CC(N)=O)C3)c2)cnc1N)c1c(Cl)ccc(F)c1Cl (stereo not drawn) [Example 109, 2-[3-(4-{6-amino-5-[1-(2,6-dichloro-3-fluorophenyl)ethoxy]pyridin-3-yl}1H-pyrazol-1-yl)azetidin-1-yl]acetamide]
700 |  | Cc1[nH]ncc1-c1cnc(N)c(OC(C)c2c(Cl)ccc(F)c2Cl)c1 (stereo not drawn) [Example 14, 3-[1-(2,6-Dichloro-3-fluoro-phenyl)-ethoxy]-5-(5-methyl-1H-pyrazol-4-yl)-pyridin-2-ylamine]
34 |  | CNC(=O)C1CC(n2cc(-c3cnc(N)c(OC(C)c4c(Cl)ccc(F)c4Cl)c3)cn2)CN1 (stereo not drawn) [Example 90, 4-(4-{6-Amino-5-[1-(2,6-dichloro-3-fluoro-phenyl)-ethoxy]-pyridin-3-yl}-pyrazol-1-yl)-pyrrolidine-2-carboxylic acid methylamide]
47 |  | CC(Oc1cc(-c2cnn(CCN3CCNCC3)c2)cnc1N)c1c(Cl)ccc(F)c1Cl (stereo not drawn) [Example 82, 3-[1-(2,6-Dichloro-3-fluoro-phenyl)-ethoxy]-5-[1-(2-piperazin-1-yl-ethyl)-1H-pyrazol-4-yl]-pyridin-2-ylamine]
34 |  | COC(=O)C1CC(n2cc(-c3cnc(N)c(OC(C)c4c(Cl)ccc(F)c4Cl)c3)cn2)CN1 (stereo not drawn) [Example 88, 4-(4-{6-Amino-5-[1-(2,6-dichloro-3-fluoro-phenyl)-ethoxy]-pyridin-3-yl}-pyrazol-1-yl)-pyrrolidine-2-carboxylic acid methyl ester]
 | 44 | COCCOc1ccc(Cl)c(C(C)Oc2cc(-c3cnn(C4CCNCC4)c3)cnc2N)c1Cl (stereo not drawn) [Example 141, 3-{1-(2,6-Dichloro-3-(2-methoxy-ethoxy)-phenyl]-ethoxy}-5-(1-piperidin-4-yl-1H-pyrazol-4-yl)-pyridin-2-ylamine]
 | 25 | CC(Oc1cc(-c2cnn(C)c2)cnc1N)c1c(Cl)c(F)cc(OC2CCNCC2)c1Cl (stereo not drawn) [Example 151, 3-{1-[2,6-Dichloro-3-fluoro-5-(piperidin-4-yloxy)-phenyl]-ethoxy]-5-(1-methyl-1H-pyrazol-4-yl)-pyridin-2-ylamine]
1560 |  | CC(Oc1cc(-n2ncc3ccccc32)cnc1N)c1c(Cl)ccc(F)c1Cl (stereo not drawn) [Example 78, 3-[1-(2,6-Dichloro-3-fluoro-phenyl)-ethoxy]-5-indazol-1-yl-pyridin-2-ylamine]
 | 14 | CC(Oc1cc(-c2cnn(C3CCN(C(=O)CN4CCCC4)CC3)c2)cnc1N)c1c(Cl)ccc(F)c1Cl (stereo not drawn) [Example 125, 1-[4-(4-{6-Amino-5-[1-(2,6-dichloro-3-fluoro-phenyl)-ethoxy]-pyridin-3-yl}-pyrazoI-1-yl)-piperidin-1-yl]-2-pyrrolidin-1-yl-ethanone]
 | 42 | CC(Oc1cc(-c2cnn(C3CCNCC3)c2)cnc1N)c1c(Cl)ccc(O)c1Cl (stereo not drawn) [Example 136, 3-{1-[2-Amino-5-(1-piperidin-4-yl-1H-pyrazol-4-yl)-pyridin-3-yloxy]-ethyl}-2,4-dichloro-phenol]
84 |  | CC(Oc1cc(-c2cnn(C(C)(C)CN(C)C)c2)cnc1N)c1c(Cl)ccc(F)c1Cl (stereo not drawn) [Example 60, 3-[1-(2,6-Dichloro-3-fluoro-phenyl)-ethoxy]-5-[1-(2-dimethylamino-1,1-dimethyl-ethyl)-1H-pyrazol-4-yl]-pyridin-2-ylamine]
36 |  | CC(Oc1cc(-c2cnn(C3CN(S(C)(=O)=O)C3)c2)cnc1N)c1c(Cl)ccc(F)c1Cl (stereo not drawn) [Example 104, 3-[1-(2,6-dichloro-3-fluorophenyl)ethoxy]-5-{1-[1-(methylsulfonyl)azetidin-3-yl]-1H-pyrazol-4-yl}pyridin-2-amine]

Compound | Ki (read-out: c-Met Ki) [nM] | Ki (read-out: Met Ki) [nM]
4-(4-{6-Amino-5-[1- (2,6-dichloro-3-fluoro- phenyl)-ethoxy]-pyridin- 3-yl}-pyrazoI-1-yl)- piperidine-1- carboxylic acid dimethylamide [Example 120] |  | 16
